Experimental data: patent publication US20260347330A1, “N-METHYL-D-ASPARTATE RECEPTOR (NMDAR) ANTAGONISTS AND USES THEREOF” (Bexson Biomedical, Inc., priority 2022, published 2026)
Read-outs that look alike come from different tables or passages of the source.

Tests used:
NMDAR = test: NMDA receptor [3H]-MK-801 competition radioligand binding in rat forebrain; details: [3H]-MK-801 1 nM competition, 1 mM glutamate, 0.1 mM glycine, pH 7.4, 2 h ambient, N = 1-4
Protocol: Rat forebrains from 7-8 week old Sprague-Dawley rats (BioChemed, USA) were homogenized in a buffer containing 10 mM HEPES and 1 mM EDTA (pH 7.4) using a mechanical homogenizer (Janke-Kunkel Ultra-Turrax T25). A 10 mL volume was used per brain for all steps involving suspension of the brain homogenate tissue. The brain homogenate was then centrifuged (15 minutes at 20,000 RPM and 4 ° C). The supernatant was carefully poured off and the pellet was resuspended in fresh 10 mM HEPES and 1 mM EDTA containing buffer. This process was repeated 5 times. Following the 5th centrifugation, the buffer was replaced with a buffer containing 10 mM HEPES (pH 7.4). The homogenate was then incubated in a water bath at 37 ° C in the dark (covered with foil). Centrifugation was then repeated 3 additional times and after resuspending in the HEPES buffer, the final homogenate was aliquoted and stored at −80 ° C until use. Protein concentration of the homogenate was determined by utilizing the Bradford method using Coomassie protein assay reagent (Sigma, USA) with Bovine Serum albumin (Sigma, USA) as a standard.
At the time of the experiment, the homogenate was diluted to a final concentration of […] in 10 mM HEPES buffer, 1 mM glutamate, and 0.1 mM glycine (pH 7.4) and combined with 1 nM (+)-[3H]-MK-801 (Perkin Elmer NET972250UC), unlabeled competitor compounds at varying concentrations, or 30 uM MK-801 to determine non-specific binding, in a total volume of 1 mL in a 96 well plate. The protein homogenate is always added to the wells last. The plates were covered with aluminum foil, and placed on a mechanical shaker (250 RPM) for 2 h at ambient temperature ([…]). After 2 h, the homogenate was collected by vacuum filtration using a Unifilter-96 Cell Harvester (Perkin Elmer) over presoaked UniFilter-96 GF/C P Microplates (Perkin Elmer) and filters were washed with room temperature 10 mM HEPES buffer (pH 7.4) (3×1 mL). The filter plates were dried overnight in a fume hood. The next day, the bound tritium was measured via liquid scintillation counting with […] MicroScint-O (Perkin Elmer) added per well, using a MicroBeta2 Plate Reader with 6-detectors scintillation counter (Perkin Elmer) at 55% efficiency. IC50 value estimates were determined in GraphPad Prism 9.3.1 using non-linear regression (single site fit) with log-concentration plotted against percent specific binding. Ki values were calculated using the equation of Cheng and Prusoff. […] Experiments were performed in duplicate. N=1-4 per compound.

[1] = target: T1, human Dopamine Transporter (Homo sapiens, UniProt Q01959); test: Human dopamine reuptake transporter (DAT) inhibition functional study, ASP+ uptake in CHO cells; type: cell-based; details: at 10,000 nM, 10 μM ASP+, 1 h, CHO cells stably expressing human DAT
T1 construct: host or cells: CHO
Protocol: CHO cells stably expressing human Dopamine Transporter Protein (Valiscreen® Perkin Elmer RBHDATM-K) were cultured in 150 mm Tissue Culture dishes (Cell Treat 229651) at 37 ° C and 5% CO2. Ham's F-12 Nutrient Mix (Gibco, USA) was supplemented with 10% dialyzed FBS (Gibco, USA), 100 µg/ml Geneticin (Gibco, USA), and 100 units/ml Penicillin and Streptomycin (Gibco, USA) as the culture media. Cells were maintained on a consistent splitting and assay schedule and utilized until passage 30 (no change in control experiments were observed up to this point).
Cells were detached from their growth dishes using Trypsin-EDTA (0.25%) (Gibco, USA) at 70-80% confluency. The cells were counted and diluted in culture media to a density of 300,000 cells/mL. 200 µl of this mixture was added to each well of a clear bottom, black-walled 96 well plate (Coming 3603, USA). Plates were incubated in the laminar flow hood for one hour prior to being placed in the cell culture incubator in order to encourage even cell distribution across the entire well surface.
The next day, Krebs-Ringer HEPES (KRH) Buffer pH 7.4 was prepared (10 mM HEPES, 130 mM NaCl, 1.3 mM KCl, 2.2 mM CaCl2, 1.2 mM MgSO4, 1.2 mM KH2PO4) and titrated with 6N NaOH. This buffer was stored in a 4 ° C refrigerator for up to 4 days (after which it was discarded). Additionally, a solution containing KRH buffer and 330 µM Trypan Blue (Sigma T6146-25G), a solution of 20 mM ASP+(MedChem Express, NJ, USA) dissolved in DMSO, were both prepared. The 20 mM DMSO stock of ASP+ was diluted to a working concentration of 40 µM in KRH buffer. DMSO solutions of 40 mM GBR-12935 dihydrochloride (MedChem Express, NJ, USA) and 40 mM test compounds were also prepared. DMSO solutions of test compounds were then diluted to a range of […]-40 μM in KRH Buffer with 1% additional DMSO added to provide consistent DMSO concentration in all samples. […] The final DMSO concentration in each well was 0.3%. […] KRH buffer with DMSO “vehicle control” served as the total fluorescence control to represent the maximum amount of substrate uptake without DAT transporter inhibition.
At the time of assay, cell media was carefully removed from the wells via pipette aspiration. 100 μL of KRH buffer was then added to all wells. Both controls, non-specific and total fluorescence stock solutions were then added to the plate (50 µL of either 400 µM GBR-12935 or KRH DMSO buffer respectively). Additionally, GBR-12935 and test compounds were added to the plate ([…] for each sample). The 10,000 nM concentration of test compound was run in triplicate wells. Next, […] ASP+(final concentration of 10 μM) was added to each well initiating the experiment. Cells were placed in the cell culture incubator for one hour, at which point 20 µL of 330 µM Trypan Blue was added to each well to quench extracellular fluorescence. The cells were then placed in the microplate reader (BioTek Synergy Neo 2), using Gen5 Ver 3.11 software. The reader was preheated to 37 ° C and following a brief orbital shake, intracellular fluorescence was measured using a fluorescence intensity reading. Intracellular ASP+ was excited at 430 nm and emission read at 510 nm via a bottom read using the extended gain settings and high lamp energy setting.

hSERT = target: T2, hSERT (Homo sapiens, UniProt P31645); test: SERT [3H]-citalopram competition radioligand binding, hSERT expressing HEK293 cell membranes
T2 construct: no vendor name is printed for this cell line) RBHSTM-K; host or cells: HEK293
Protocol: Valiscreen Serotonin Transporter (SERT) (Human) Cell Line (HEK293 host cells, Product No: RBHSTM-K) grown in DMEM/F12 media with 10% FBS, 0.1 mg/ml Geneticin, 1% GlutaMAX, and 1% Penicillin-Streptomycin added were used to prepare SERT membrane fractions. Cells were grown in 150 mm dishes and harvested between 70-90% confluency, passages 5-20. Cells were detached using a buffer containing 1 mM HEPES and 2 mM EDTA (pH 7.4). After detachment, the cells were homogenized using a handheld homogenizer, and the lysate was centrifuged (30 minutes at 30,000×G) at 4 ° C The resulting pellet was resuspended in storage buffer containing 20 mM HEPES, 10 mM MgCl2, 0.1 mM EDTA, and 10% sucrose at pH 7.4. Protein concentration was determined via the Bradford method using Coomassie protein assay reagent (Sigma, USA) with Bovine Serum albumin (Sigma, USA) as standard.
Buffer containing 10 mM HEPES, 120 mM NaCl, and 5 mM KCl (pH 7.4) was added to SERT membranes to dilute to a final protein concentration of 5 µg/mL per well. Additionally, 0.5 nM [3H]-Citalopram (Perkin Elmer NET1039250UC) was added, along with unlabeled competitors at various concentrations or […] citalopram for nonspecific binding controls, bringing the total volume to 1 ml in a 96 well plate. SERT membranes were always added last to each well. The plates were covered from light with aluminum foil and incubated at ambient temperature ([…]) and placed on a mechanical shaker (250RPM) for 2 h. After 2 h, SERT protein was captured via vacuum filtration using a Unifilter-96 Cell Harvester (Perkin Elmer) over presoaked UniFilter-96 GF/C P Microplates (Perkin Elmer) and filters were washed with room temperature 10 mM HEPES, 120 mM NaCl, and 5 mM KCl buffer (pH 7.4) (3×1 mL). The filter plates were dried overnight in a fume hood. The next day, the SERT bound tritium was measured via liquid scintillation counting with MicroScint-O (Perkin Elmer), using a MicroBeta2 Plate Reader with 6-detectors scintillation counter (Perkin Elmer) at 55% efficiency. IC50 value estimates were determined in GraphPad Prism 9.3.1 using non-linear regression (single site fit) with log-concentration plotted against percent specific binding. […] For each experiments compounds were run in duplicate. N=1-3 repeats per compound.

[2] = 0.5 nM [3H]-citalopram competition, hSERT HEK293 membranes, pH 7.4, 2 h ambient, N = 1, read-out: SERT pKi (converted)

T2 sequence (P31645 whole entry): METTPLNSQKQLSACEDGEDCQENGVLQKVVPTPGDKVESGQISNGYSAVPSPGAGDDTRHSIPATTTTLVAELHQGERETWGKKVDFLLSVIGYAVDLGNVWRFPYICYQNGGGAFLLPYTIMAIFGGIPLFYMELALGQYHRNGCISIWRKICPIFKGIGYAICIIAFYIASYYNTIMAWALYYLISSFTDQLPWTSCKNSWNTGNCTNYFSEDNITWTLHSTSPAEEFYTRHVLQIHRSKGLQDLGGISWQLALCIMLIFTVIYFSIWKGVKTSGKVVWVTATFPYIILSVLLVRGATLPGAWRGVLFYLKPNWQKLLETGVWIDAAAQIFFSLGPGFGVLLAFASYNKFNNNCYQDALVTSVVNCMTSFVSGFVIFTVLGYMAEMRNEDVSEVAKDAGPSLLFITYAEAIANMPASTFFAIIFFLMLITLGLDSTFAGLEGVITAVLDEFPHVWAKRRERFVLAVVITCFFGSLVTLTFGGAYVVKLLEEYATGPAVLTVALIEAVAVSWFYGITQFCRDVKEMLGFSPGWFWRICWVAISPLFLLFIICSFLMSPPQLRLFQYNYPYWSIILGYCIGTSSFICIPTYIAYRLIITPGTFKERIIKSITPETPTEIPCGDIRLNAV
T1 sequence (Q01959 whole entry): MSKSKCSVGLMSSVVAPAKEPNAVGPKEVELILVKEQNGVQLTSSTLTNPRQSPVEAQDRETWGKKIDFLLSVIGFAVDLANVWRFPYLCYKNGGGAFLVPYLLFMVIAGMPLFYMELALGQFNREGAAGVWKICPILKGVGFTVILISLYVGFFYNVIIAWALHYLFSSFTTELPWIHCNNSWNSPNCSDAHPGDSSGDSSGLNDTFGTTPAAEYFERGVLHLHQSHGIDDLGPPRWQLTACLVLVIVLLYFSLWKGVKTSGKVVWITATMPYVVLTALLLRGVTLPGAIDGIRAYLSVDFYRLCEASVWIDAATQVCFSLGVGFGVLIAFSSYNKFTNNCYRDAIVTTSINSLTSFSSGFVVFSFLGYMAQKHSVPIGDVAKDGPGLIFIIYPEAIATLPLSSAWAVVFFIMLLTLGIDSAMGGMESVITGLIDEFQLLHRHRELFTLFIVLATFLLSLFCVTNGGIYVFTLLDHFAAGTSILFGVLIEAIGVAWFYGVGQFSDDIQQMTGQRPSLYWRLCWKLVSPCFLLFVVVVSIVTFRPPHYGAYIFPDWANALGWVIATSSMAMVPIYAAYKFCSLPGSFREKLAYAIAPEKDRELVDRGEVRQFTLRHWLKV

For NC(CC1CCC1)(c1ccccc1)C1CCCC1 (centres unmarked) [Compound 9, 2-cyclobutyl-1-cyclopentyl-1-phenylethan-1-amine], the “NMDAR binding affinity pKi (mean ± SEM)” value (NMDAR) was 5.80 ± 0.095, the inhibition at 10 µM [1] was -4% and the IC50 (hSERT) was over 10 µM.

NC(c1ccccc1Cl)C1CCCC1 (centres unmarked) [Compound 29, (2-chlorophenyl)(cyclopentyl)methanamine] was tested, and the “NMDAR binding affinity pKi (mean ± SEM)” value (NMDAR) was 5.47 ± 0.030, the inhibition at 10 µM [1] was 10.3% and the IC50 (hSERT) was over 10 µM.

With CC(c1ccccc1)(C1CCCC1)N1CCCCC1 (centres unmarked) [Compound 22, 1-(1-cyclopentyl-1-phenylethyl)piperidine] the “NMDAR binding affinity pKi (mean ± SEM)” value (NMDAR) was 6.08 ± .0633 and the Ki (hSERT; [2]) was 0.479 µM.

In the case of CC(N)(c1ccccc1)C1CCCC1 (centres unmarked) [Compound 3, 1-cyclopentyl-1-phenylethan-1-amine], the “NMDAR binding affinity pKi (mean ± SEM)” value (NMDAR) is reported as 7.11 ± 0.041, the inhibition at 10 µM [1] is reported as 16.8% and the IC50 (hSERT) is reported as over 10 µM.

In the case of NC(c1ccccc1)C1CCCCC1 (centres unmarked) [Compound 28, Cyclohexyl(phenyl)methanamine], the “NMDAR binding affinity pKi (mean ± SEM)” value (NMDAR) is reported as 4.97 ± 0.054 and the inhibition at 10 µM [1] is reported as 17.9%.

In the case of C=CCC(N)(c1ccccc1)C1CCCC1 (centres unmarked) [Compound 6, 1-cyclopentyl-1-phenylbut-3-en-1-amine], the “NMDAR binding affinity pKi (mean ± SEM)” value (NMDAR) is reported as 5.89 ± 0.072, the inhibition at 10 µM [1] is reported as 23.1% and the Ki (hSERT) is reported as 3.16 µM.

CC(c1ccccc1)(C1CCCCC1)N1CCCCC1 (centres unmarked) [Compound 23, 1-(1-cyclohexyl-1-phenylethyl)piperidine] was tested, and the “NMDAR binding affinity pKi (mean ± SEM)” value (NMDAR) was 5.52 ± .118, the inhibition at 10 µM [1] was 71.6% and the Ki (hSERT; [2]) was 2.63 µM.

For CCC(C)NC(C)(c1ccccc1)C1CCCC1 (centres unmarked) [Compound 20, N-(1-cyclopentyl-1-phenylethyl)butan-2-amine], the “NMDAR binding affinity pKi (mean ± SEM)” value (NMDAR) was 7.35 ± 0.075, the inhibition at 10 µM [1] was 56.7% and the Ki (hSERT) was 2.45 µM.

NC(c1ccccc1)(C1CCCC1)C1CC1 (centres unmarked) [Compound 5, Cyclopentyl(cyclopropyl)(phenyl)methanamine] was tested, and the “NMDAR binding affinity pKi (mean ± SEM)” value (NMDAR) was 6.23 ± 0.046, the inhibition at 10 µM [1] was 1.3% and the IC50 (hSERT) was over 10 µM.

In the case of CNC(C)(c1ccccc1)C1CCCC1 (centres unmarked) [Compound 15, 1-cyclopentyl-N-methyl-1-phenylethan-1-amine], the “NMDAR binding affinity pKi (mean ± SEM)” value (NMDAR) is reported as 6.56 ± 0.064, the inhibition at 10 µM [1] is reported as 18.2% and the Ki (hSERT) is reported as 0.501 µM.

In the case of CC(NC1CCC1)(c1ccccc1)C1CCCC1 (centres unmarked) [Compound 21, N-(1-cyclopentyl-1-phenylethyl)cyclobutanamine], the “NMDAR binding affinity pKi (mean ± SEM)” value (NMDAR) is reported as 8.06 ± 0.021 and the inhibition at 10 µM [1] is reported as 87.3%.

In the case of C=CCCC(N)(c1ccccc1)C1CCCC1 (centres unmarked) [Compound 8, 1-cyclopentyl-1-phenylpent-4-en-1-amine], the “NMDAR binding affinity pKi (mean ± SEM)” value (NMDAR) is reported as 6.24 ± 0.444 and the inhibition at 10 µM [1] is reported as 3.1%.

In the case of CC(N)(c1ccccc1)C1CCCCC1 (centres unmarked) [Compound 11, 1-cyclohexyl-1-phenylethan-1-amine], the “NMDAR binding affinity pKi (mean ± SEM)” value (NMDAR) is reported as 6.09 ± 0.120, the inhibition at 10 µM [1] is reported as 11.7% and the IC50 (hSERT) is reported as over 10 µM.

With NC(c1ccccc1)(C1CCCC1)C1CCC1 (centres unmarked) [Compound 7, Cyclobutyl(cyclopentyl)(phenyl)methanamine] the “NMDAR binding affinity pKi (mean ± SEM)” value (NMDAR) was 5.63 ± 0.029 and the inhibition at 10 µM [1] was 24.1%.

For CC(C)NC(C)(c1ccccc1)C1CCCC1 (centres unmarked) [Compound 19, N-(1-cyclopentyl-1-phenylethyl)propan-2-amine], the “NMDAR binding affinity pKi (mean ± SEM)” value (NMDAR) was 7.34 ± 0.041, the inhibition at 10 µM [1] was 39.2% and the Ki (hSERT; [2]) was 0.151 µM.

With CCC(N)(c1ccccc1)C1CCCC1 (centres unmarked) [Compound 4, 1-cyclopentyl-1-phenylpropan-1-amine] the “NMDAR binding affinity pKi (mean ± SEM)” value (NMDAR) was 6.64 ± 0.101, the inhibition at 10 µM [1] was 24.3% and the IC50 (hSERT) was over 10 µM.

For CCNC(C)(c1ccccc1)C1CCCC1 (centres unmarked) [Compound 16, 1-cyclopentyl-N-ethyl-1-phenylethan-1-amine], the “NMDAR binding affinity pKi (mean ± SEM)” value (NMDAR) was 6.93 ± 0.073, the inhibition at 10 µM [1] was 16% and the Ki (hSERT; [2]) was 1.12 µM.

In the case of CC(N)(c1ccccc1)C1CC1 (centres unmarked) [Compound 2, 1-cyclopropyl-1-phenylethan-1-amine], the “NMDAR binding affinity pKi (mean ± SEM)” value (NMDAR) is reported as 6.19 ± 0.162 and the IC50 (hSERT) is reported as over 10 µM.

With CC(C)C(C)(N)c1ccccc1 (centres unmarked) [Compound 25, 3-methyl-2-phenylbutan-2-amine] the “NMDAR binding affinity pKi (mean ± SEM)” value (NMDAR) was 5.86 ± 0.044 and the inhibition at 10 µM [1] was 37.6%.
